Experimental data from patent US7625948B2, “Ester compound and medicinal use thereof” (Japan Tobacco Inc., priority 2002, dated 2009).
pIC50: −log10 of the molar value.

The compounds below were run on HepG2 cells (assay: Test Example 2: inhibition of apolipoprotein B secretion from HepG2 cells, ELISA (also used for metabolites in Test Example 8)). Details: Homo sapiens, 24 hours, apo B in supernatant by ELISA, read-out: Test Example 2 Inhibition of apo B secretion IC50.
Format: cell-based
Method: Inhibition of Apolipoprotein B Secretion from HepG2 Cells
HepG2 cells were suspended in Dulbecco's Modified Eagle's Medium (DMEM) (containing 10% fetal bovine serum, 100 units/mL penicillin and 100 μg/mL streptomycin), and placed on a 96-well plate (4×10^4 cells/well), then incubated for 24 hours. After removal of the medium, DMEM was replaced by a medium containing a sample dissolved in DMSO or a medium containing DMSO (concentration of DMSO: 0.5%) and incubation was further performed for 24 hours, after which the supernatant was recovered, and concentration of apo B in the supernatant was assayed by Enzyme-Linked Immunosorbent Assay (ELISA)
ELISA was carried out as follows. Anti-human apo B monoclonal antibody (0.5 μg/well) diluted with a solution of sodium carbonate in sodium bicarbonate buffer (50 mL, pH 9.6) was placed in a 96-well plate for ELISA, and allowed to stand at room temperature for 15 hours. After washing the plate, a blocking solution (250 μL/well) was placed in the well, and allowed to stand at room temperature for 1.5 hours. After washing the plate, a standard and a sample (100 μL/well) were placed in the well and allowed to stand at room temperature for one hour. The standard was prepared by adjusting the concentration of the purified human apo B with the DMEM to 0 to 1000 ng/mL. After washing the plate, an anti-human apo B polyclonal antibody labeled with a horse radish peroxidase which was diluted in 1:1000 with DEME (100 μL/well), and allowed to stand at room temperature for one hour. After washing the plate, 2,2-azinobis(3-ethylbenzothiazoline-6-sulfonic acid) solution (100 μL/well) was placed in the well, and allowed to stand at room temperature for one hour. The reaction was stopped by addition of 2% oxalic acid (100 μL/well), and absorbency at 405 nm was measured. Concentration of apo B in the sample was calculated on the basis of a standard curve of the standard. Inhibition rate (%) was calculated from the assayed values in accordance with the following equation.
Inhibition rate (%)=100×(1 minus (concentration of apo B in sample group/concentration of apo B in DMSO group).
Based on the above equation, 50% inhibition concentration (IC50) was determined.
Inhibitory Activity on MTP and apo B Secretion Inhibition by Metabolites
In a similar manner to Test Examples 1 and 2, the activity of metabolites was assayed.

| SMILES | pIC50 |
| --- | --- |
| CCOC(=O)C(COC(=O)Cc1ccc(NC(=O)c2ccccc2-c2ccc(C#N)cc2)c(C(=O)N(C)C)c1)(C(=O)OCC)c1ccccc1 [Example 2-46] | 8.54 |
| CCOC(=O)C(CCOC(=O)Cc1ccc(NC(=O)c2ccccc2-c2ccc(C(F)(F)F)cc2)c(C(=O)N(C)C)c1)(C(=O)OCC)c1ccccc1 [Example 2-32] | 8.77 |
| CCOC(=O)C(COC(=O)Cc1ccc(NC(=O)c2ccccc2-c2ccc(C(F)(F)F)cc2)c(-c2nc(C)cs2)c1)(C(=O)OCC)c1ccccc1 [Example 9-23] | 8.06 |
| CCOC(=O)C(COC(=O)Cc1ccc(NC(=O)c2ccccc2-c2ccc(C(F)(F)F)cc2)c(C(=O)N(C)C)c1)(C(=O)OCC)C1CCCC1 [Example 2-40] | 9.00 |
| CCOC(=O)C(COC(=O)Cc1ccc(NC(=O)c2ccccc2-c2ccc(C(C)=O)cc2)c(C(=O)N(C)C)c1)(C(=O)OCC)c1ccccc1 [Example 2-43] | 8.05 |
| CCOC(=O)C(COC(=O)Cc1ccc(NC(=O)c2ccccc2-c2ccc(C(F)(F)F)cc2)c(C(=O)OCc2ccccc2)c1)(C(=O)OCC)c1ccccc1 [Example 9-14] | 7.39 |
| CCNC(=O)C(COC(=O)Cc1ccc(NC(=O)c2ccccc2C(F)(F)F)c(C(=O)N(C)C)c1)(C(=O)NCC)c1ccccc1 [Example 2-30] | 7.57 |
| CCOC(=O)C(COC(=O)Cc1ccc(NC(=O)c2ccccc2-c2ccc(F)cc2)c(C(=O)N(C)C)c1)(C(=O)OCC)c1ccccc1 [Example 2-33] | 7.89 |
| CCOC(=O)C(COC(=O)Cc1ccc(NC(=O)c2ccccc2-c2ccc(C(F)(F)F)cc2)c(NC(C)=O)c1)(C(=O)OCC)c1ccccc1 [Example 9-21] | 7.70 |
| CCOC(=O)C(COC(=O)Cc1ccc(NC(=O)c2cc(C)ccc2-c2ccc(C(F)(F)F)cc2)c(C(=O)N(C)C)c1)(C(=O)OCC)c1ccccc1 [Example 2-47] | 8.92 |
| CCOC(=O)C(COC(=O)Cc1ccc(NC(=O)c2ccccc2-c2ccc(Br)cc2)c(C(=O)N(C)C)c1)(C(=O)OCC)c1ccccc1 [Example 2-34] | 8.70 |
| CCOC(=O)C(CCOC(=O)Cc1ccc(NC(=O)c2ccc(C(F)(F)F)cc2-c2ccc(C(F)(F)F)cc2)c(C(=O)N(C)C)c1)(C(=O)OCC)c1ccccc1 [Example 2-84] | 8.70 |
| CCOC(=O)C(CCOC(=O)Cc1cccc(NC(=O)c2ccccc2-c2ccc(C(F)(F)F)cc2)c1OCC)(C(=O)OCC)c1ccccc1 [Example 5-15] | 8.19 |
| CCOC(=O)C(COC(=O)Cc1ccc(NC(=O)c2ccc(Cl)cc2-c2ccc(C(F)(F)F)cc2)c(C(=O)N(C)C)c1)(C(=O)OCC)c1ccccc1 [Example 2-54] | 8.07 |
| CCOC(=O)C(COC(=O)Cc1ccc(NC(=O)c2ccccc2-c2ccc(C(F)(F)F)cc2)c(NC(=O)OC)c1)(C(=O)OCC)c1ccccc1 [Example 9-22] | 9.02 |
| CCNC(=O)C(COC(=O)Cc1ccc(NC(=O)c2cccnc2-c2ccc(C(F)(F)F)cc2)cc1)(C(=O)NCC)c1ccccc1 [Example 1-76] | 6.92 |
| CCOC(=O)C(COC(=O)Cc1ccc(NC(=O)c2ccccc2-c2ccc(C(F)(F)F)cc2)c(C(C)C)c1)(C(=O)OCC)c1ccccc1 [Example 1-80] | 8.09 |
| CCOC(=O)C(COC(=O)Cc1ccc(NC(=O)c2ccccc2-c2ccc(C(F)(F)F)cc2)c(OC(C)C)c1)(C(=O)OCC)c1ccccc1 [Example 3-9] | 8.80 |
| C=C(C)c1cc(C(F)(F)F)ccc1C(=O)Nc1ccc(CC(=O)OCC(C(=O)OCC)(C(=O)OCC)c2ccccc2)cc1C(=O)N(C)C [Example 2-93] | 7.34 |
| CCOC(=O)C(COC(=O)Cc1ccc(NC(=O)c2ccccc2-c2ccc(C(F)(F)F)cc2)c(-c2ccccc2)c1)(C(=O)OCC)c1ccccc1 [Example 9-24] | 8.10 |
| CCCN(C)C(=O)c1cc(CC(=O)OCCC(C(=O)NCC)(C(=O)NCC)c2ccccc2)ccc1NC(=O)c1ccccc1-c1ccc(C(F)(F)F)cc1 [Example 2-20] | 9.19 |
| CCOC(=O)C(COC(=O)Cc1ccc(NC(=O)c2ccccc2-c2ccc(C(F)(F)F)cc2)c(C(=O)N(C)C)c1)(C(=O)OCC)c1ccc(C)s1 [Example 2-109] | 9.03 |
